For one test, the target named is T1, hemoglobin (Mus musculus, UniProt P01942+P02088).
T1 construct: after a 300 mg/kg RSR13 injection into mice; host or cells: blood (erythrocytes) of mice injected with RSR13; endogenous hemoglobin
The conditions noted are these: 20–40 min after 300 mg/kg RSR13 injection into mice; cited from earlier work.

The subject of a further test is tumors. The following applies: previous studies, fractionated radiotherapy; cited from earlier work.
The test system of test [1] is NCI-H460 human large cell lung carcinoma xenografts. The test can be described thus: BOLD MRI signal ratio in tumors after RSR13 injection. In kind it is in vivo, athymic nude mice. The conditions noted are these: for Change in BOLD MRI signal: (Intensity (t = 30 min)/Intensity (t = 0)): 30 min after injection, preliminary. The procedure: (§1) NCI-H460 human large cell lung carcinoma cells were obtained from the American Type Culture Collection (ATCC). H460 cells were cultured at 37° C., 5% CO2 in RPMI 1640 medium (Gibco BRL, Gaithersburg, Md.)+10% fetal bovine serum (Gibco)+50 U/ml penicillin (Gibco)+50 μg/ml streptomycin (Gibco). Cells were routinely passaged using 0.05% trypsin-EDTA. Human NIH-H460 cells were used as a xenograft model in female athymic nude mice (nu/nu, 5–6 weeks old). Cells at 80% confluence were trypsinized, resuspended in growth medium, and counted. Cells were then centrifuged and resuspended in 37° C. PBS at 2×10^7 cells/ml. A suspension of 2×10^6 cells in a 0.1 ml volume was injected subcutaneously (s.c.) into the left posterior flank. Tumors were allowed to grow for 2 weeks (about 1 cm^3) before imaging, or for 7 days prior to treatment with RSR13 and radiation.
Mice with tumors were anesthetized with 0.05 cc of a ketamine (100 mg/ml) and acepromezine (2.5 mg/0.25 ml) cocktail (induction anesthesia). A 24G angiocath, attached to a syringe with the appropriate amount of RSR13, was then placed and secured intraperitoneally (i.p.). Mice were placed in a pre-warmed anesthesia chamber and the surface coil was positioned over the tumor. The entire assembly was then placed into a Varian 4.7T small bore MR scanner. The anesthesia chamber was then infused with a mixture of 98.5% room air and 1.5% isoflurane (maintenance anesthesia) at a rate of 1.5 L/min throughout the experiment. After scout images were obtained to localize the tumor, serial gradient echo images were obtained at ten-minute intervals over a total of 60 minutes. RSR13 was supplied as a 20-mg/ml stock solution, which was diluted with sterile phosphate-buffered saline (PBS) prior to experiments to achieve the desired dose (mg/kg) per […]. At the start of acquisition of the second image (“time 0”), a dose of RSR13 was injected i.p. RSR13 doses were administered in 0.3 ml volumes; control mice were given injections of saline. Preliminary experiments were performed to optimize the BOLD contrast, first by imaging mouse tumors without any drug, and then by administering different doses of RSR13. A dose of 200 mg/kg was then chosen for further studies. Parameters for BOLD-MRI scans were chosen to maximize sensitivity to oxygen dependent changes in the relaxation parameter T2*. The following MRI parameters were used: TR=520 ms, TE=27 ms, flip angle=45°, 18 signal averages, 230 μm spatial resolution, matrix=128×128, bandwidth=37.4 kHz, field of view=3×3 cm. Color maps indicating percent increase in signal relative to the baseline gradient echo image were created for each image. Color maps were overlaid on corresponding spin echo images for anatomic reference. After images were acquired, each individual tumor (at t=30 min.) was examined slice by slice, and a single slice which was most representative of the entire tumor was chosen. Within each representative slice, a 15×15-pixel regions of interest (ROI) was drawn around the area of maximum signal intensity (about 25% of the tumor slice area). The voxel size was 0.23 mm×0.23 mm×1 mm; thus the slice thickness was 1 mm. The same slice and ROI were then used to calculate the signal ratio corresponding to the other times for the same tumor. The following signal ratio was calculated: Intensity (t)/Intensity (t=0 min). Based on the signal parameters listed above, the MRI signal intesnsity is proportional to the MR relaxation time, T*2, which is linearly related to the level of oxygen saturation. See, e.g. Ogawa, et al., Magn. Reson. Med. 29:205–10 (1993). Images were analyzed in a blind fashion in the dose dependence studies, without knowledge of the drug doses used, to eliminate observer bias.
A paired t-test was applied to test the differences between baseline and follow-up time points. All tests of significance were two-sided, and differences were considered statistically significant when the P value was≦0.05. […]

For test [2] the test system is unchanged. Description: Tumor growth delay, RSR13 and/or radiation. The following applies: for Tumor growth delay: n=4. In kind it is in vivo, athymic nude mice. How it is done:
as §1
Tumors on the flanks of mice were irradiated using an Eldorado-8 ^60Co γ irradiator (Neutron Products, Inc., Dickerson, Md.). The dose rate was 1.18 Gy/min, at an SSD of 56.5 cm. The non-tumor parts of mice were shielded using lead blocks. Mice were irradiated using restraining devices constructed from 50 ml conical polyethylene tubes taped to a Styrofoam pad. Mice were irradiated 30 min after administration of RSR13 (given by intraperitoneal injection).
Tumors were measured three times weekly in two perpendicular dimensions using Vernier calipers. Volumes were calculated using the formula: volume=0.4* ab^2 (a=long dimension, b=short dimension). Treatment began when tumors reached an average volume of about 0.3 cm^3. Growth delay time (GD) was calculated as the time for treated tumors to double in volume minus the time for control tumors to double in volume, with t=0 defined as the first day of treatment. Treatment groups consisted of either untreated control, radiation alone, RSR13 alone, or RSR13 plus radiation. Each treatment group contained four mice.
A paired t-test was applied to test the differences between baseline and follow-up time points. […]

T1 sequence (P01942 2-142 limits assumed): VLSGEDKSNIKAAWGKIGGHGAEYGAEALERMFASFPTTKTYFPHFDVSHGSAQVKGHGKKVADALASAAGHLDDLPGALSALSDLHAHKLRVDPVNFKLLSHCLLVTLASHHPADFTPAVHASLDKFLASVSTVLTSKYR
T1 sequence (P02088 2-147 limits assumed): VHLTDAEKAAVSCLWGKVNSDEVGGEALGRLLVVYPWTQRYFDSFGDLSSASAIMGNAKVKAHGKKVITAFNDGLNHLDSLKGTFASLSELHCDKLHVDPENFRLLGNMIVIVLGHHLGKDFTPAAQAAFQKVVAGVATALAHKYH

Turning to `Cc1cc(C)cc(NC(=O)Cc2ccc(OC(C)(C)C(=O)O)cc2)c1` [RSR13, 2-[4-(((3,5-dimethylanilino)carbonyl)methyl)phenoxy]-2-methylpropionic acid], on hemoglobin, the “Mean increase of pO2 at 50% hemoglobin saturation” value is given as 53%. In addition, the “Enhancement ratios (dose modifying factors)” value in the test on tumors is reported as 1.3–1.8. Moreover, the “Increase of MRI signal ratio between t=10 and 30 min” value in test [1] (200 mg/kg i.p., n=8, P=0.04) amounted to 14%. Moreover, the “Increase of MRI signal ratio between t=10 and 20 min” value in test [1] (200 mg/kg i.p., n=8, P=0.05) is reported as 9%. In addition, in test [1] (200 mg/kg i.p., n=8, P≧0.05), the “Changes of MRI signal ratio between t=10 and 40, 50, or 60 min” value was “not statistically significant”. The “Time of maximum MRI signal ratio after RSR13 injection” value in test [1] (200 mg/kg i.p., n=8 mice) stood at 30 min. Further, the “Increase in signal in tumor tissue ROI, normalized to signal at time zero” value in test [1] (FIG. 9, H460 tumor ROI 1, about two hours after time zero injection) is around 20%. The “Change in BOLD MRI signal: (Intensity (t = 30 min)/Intensity (t = 0))” value was determined as 1.13 in test [1] (RSR13 100 mg/kg i.p., 1 mouse (Mouse B)); 1.20 in test [1] (RSR13 200 mg/kg i.p., 1 mouse (Mouse C)); 1.19 in test [1] (RSR13 300 mg/kg i.p., 1 mouse (Mouse D)). Also, the “Dose at which the signal ratio reached a plateau” value in test [1] (doses 0, 100, 200, 300 mg/kg, t=30 min) was 200 mg/kg. Also, in test [2] (6.6/2.4, 200 mg/kg, 10 Gy 30 min later), the “Enhancement factor (growth delay RSR13 plus radiation / radiation alone)” value worked out at 2.8. In addition, the Tumor growth delay in test [2] (RSR13 200 mg/kg i.p. plus radiation 10 Gy given 30 min later, radiation alone 2.4 days) is listed as 6.6 days; in test [2] (RSR13 alone, 200 mg/kg i.p.), “did not affect tumor growth delay”.

(Values after patent US7097825B2, “Methods and reagents to acquire MRI signals and images” (Allos Therapeutics, Inc., priority 2001, dated 2006).)
